Assay results taken from patent US20250255882A1, “TREATMENT OF CARDIAC CONDITION RELATED COGNITIVE DYSFUNCTION” (The Trustees of Columbia University in the City of New York, priority 2024, published 2025).
Each block holds one compound with its values, some of them ahead of it.

Experiments:
RyR2 [1] = molecular target: RyR2 (Mus musculus, UniProt E9Q401); test: caffeine-induced Ca2+ release in primary hippocampal neurons; format: cell-based; design: representative images of 14-d cultured hippocampal neurons stimulated with 10 mM caffeine; endogenous in cells; host or cells: primary hippocampal neurons, 14 d in culture; details: 10 mM caffeine; hippocampal neurons treated with the adrenergic agonist alone
Description: FIG. 5A presents representative images of 14-d cultured hippocampal neurons stimulated with 10 mM caffeine. For each condition, the Ca^2+ levels are shown at baseline, during stimulation and at recovery. […] Individual values are shown with the mean±s.e.m. […] Scale bar, 10 μm. A reduction in caffeine-induced Ca^2+ release indicates a Ca^2+ depleted ER due to persistent RyR2-mediated Ca^2+ leak. Data are derived from biologically independent samples. All statistical tests were two sided.
To determine whether the activation of the adrenergic pathway indeed causes neuronal RyR2-mediated ER Ca^2+ leak, caffeine (10 mM), a well characterized RyR agonist, was used to assess RyR2 function specifically in hippocampal neurons without interference of other cell types such as glial cells or astrocytes.

[2] = system: mouse model of HF (myocardial infarction, MI); test: open field test and elevated plus maze (EPM) test; format: in vivo; details: MI mice, treated
From the text: FIGS. 2A-2G illustrate a mouse model of heart failure (myocardial infarction) that is associated with cognitive dysfunction. […] One-way analysis of variance (ANOVA) was used to compare the difference between the six groups in FIGS. 2B, 2C, 2E and 2F. Tukey's test was used for multiple comparisons; two-way ANOVA was used in FIG. 2D. […] All statistical tests were two sided with the data derived from biologically independent samples.
Because of the complexity of the clinical manifestation of HF patients, the mouse model of HF (myocardial infarction, MI) was used with reduced ejection fraction to evaluate the mechanisms of CD. The open field test and elevated plus maze (EPM) test were used to evaluate the behavioral phenotypes, and spontaneous exploratory activity in the mice. In the open field test, mice were placed at the center of a chamber and allowed to explore for 6 min. […] In the EPM test, MI mice spent […] time in the open arms of the EPM (FIG. 2B) compared to SHAM (0.22±0.04 versus 0.14±0.02; P<0.05). […] As a control, the effects of a Rycal®, ARM036, was studied.

[3] = system: mouse model of HF (myocardial infarction, MI); test: MWM test (long-term spatial learning and memory) with probe trial; format: in vivo; details: MI mice, treated; for latency to find and reach the hidden platform: day 4 training trials, MI 30±1 s, SHAM 21±2 s
Description: (§1) One-way analysis of variance (ANOVA) was used to compare the difference between the six groups in FIGS. 2B, 2C, 2E and 2F. Tukey's test was used for multiple comparisons; two-way ANOVA was used in FIG. 2D. […] All statistical tests were two sided with the data derived from biologically independent samples.
A MWM test was performed to assess hippocampal-dependent long-term spatial learning and memory.
A probe trial was performed on day 5 of the MWM test.

[4] = blood-brain barrier crossing
TGF-β pathway = test: immunoblots of TGF-β, phosphorylated SMAD3 and NOX2 binding to RyR2 in hippocampi; format: in vivo, mouse; details: hippocampi of treated MI mice
From the text: FIG. 12A includes immunoblots showing expressing levels of TGF-β, phosphorylated SMAD3, total SMAD3, and NOX2 binding to RyR2 in the hippocampi of controls (n=4) and HF patients (n=9). FIG. 12B includes bar graphs depicting the ratio of TGF-β expression normalized to GAPDH, phosphorylated SMAD3 to total SMAD3 and NOX2 binding to RyR2 (IP RyR2). The same quantity of proteins was loaded on two separate gels and blotted separately for SMAD3 and pSMAD3. Individual values are shown with mean±SEM (t-test * p<0.05, Controls vs. HF patients). […] FIG. 12D includes bar graphs depicting the ratio of TGF-β expression normalized to GAPDH, phosphorylated SMAD3 to total SMAD3 and NOX2 binding to RyR2 (IP RyR2). The same quantity of proteins was loaded on two separate gels and blotted separately for SMAD3 and pSMAD3. Individual values are shown with mean±SEM. […] All statistical tests were two-sided. Data are derived from biologically independent samples.
TGF-β has been implicated in CNS disorders including Alzheimer's disease.

MI mice [5] = test: long-term potentiation (fEPSPs) in hippocampal slices; format: in vivo, mouse; details: slices from treated MI mice; MI decreased LTP versus SHAM
Description: (§2) FIG. 4A is a schematic representation of a hippocampal brain slice for LTP experiments and the positioning of the stimulating and recording electrodes.
Field excitatory postsynaptic potentials (fEPSPs) were evaluated at the Schaffer collateral using a bipolar electrode placed at the CA3 and recording at the CA1 (FIG. 4A). […] Importantly, MI and treatment with the various compounds after MI had no effect on basal synaptic transmission determined by the input-output curves (I-O; P=0.5; FIG. 4D).

MI mice [6] = test: hippocampal FDG metabolism by microPET; format: in vivo, mouse; details: treated MI mice; percentage of the FDG uptake in the SHAM mice (SHAM 100±3, MI 70±3)
From the text: as §2
Thereafter, [^18F]fluorodeoxyglucose (FDG) with positron emission tomography (PET) was used to measure energy consumption in neurons, which reflects neuronal communication signals and the integrative local neuronal activity. Deteriorating brain glucose metabolism measured by FDG-PET has been used as a clinical marker for Alzheimer's disease diagnosis. Thus, hippocampal FDG metabolism was evaluated in the experimental groups (FIGS. 4E and 4F).

adrenergic pathway = test: hippocampal norepinephrine levels and PKA activity; format: in vivo, mouse; details: treated versus untreated MI mice
Description: The hippocampal levels of norepinephrine and PKA activity were measured.

[7] = system: mouse model of HF (myocardial infarction, MI); test: novel object recognition test (hippocampal-dependent short-term memory); format: in vivo; details: MI mice, treated; MI 15%±4%, SHAM 48%±5%
From the text: as §1
Next, a novel object recognition test was used to evaluate hippocampal-dependent short-term memory. (see Liu, X. et al. Role of leaky neuronal ryanodine receptors in stress-induced cognitive dysfunction. Cell 150, 1055-1067 (2012); and Bevins, R. A. & Besheer, J. Object recognition in rats and mice: a one-trial non-matching-to-sample learning task to study ‘recognition memory’. Nat. Protoc. 1, 1306-1311 (2006)).

RyR2 [8] = molecular target: RyR2 (Homo sapiens, UniProt Q92736); details: previously identified binding site; cited from earlier work
Sequence of RyR2 (Homo sapiens, UniProt Q92736) (Q92736 whole entry): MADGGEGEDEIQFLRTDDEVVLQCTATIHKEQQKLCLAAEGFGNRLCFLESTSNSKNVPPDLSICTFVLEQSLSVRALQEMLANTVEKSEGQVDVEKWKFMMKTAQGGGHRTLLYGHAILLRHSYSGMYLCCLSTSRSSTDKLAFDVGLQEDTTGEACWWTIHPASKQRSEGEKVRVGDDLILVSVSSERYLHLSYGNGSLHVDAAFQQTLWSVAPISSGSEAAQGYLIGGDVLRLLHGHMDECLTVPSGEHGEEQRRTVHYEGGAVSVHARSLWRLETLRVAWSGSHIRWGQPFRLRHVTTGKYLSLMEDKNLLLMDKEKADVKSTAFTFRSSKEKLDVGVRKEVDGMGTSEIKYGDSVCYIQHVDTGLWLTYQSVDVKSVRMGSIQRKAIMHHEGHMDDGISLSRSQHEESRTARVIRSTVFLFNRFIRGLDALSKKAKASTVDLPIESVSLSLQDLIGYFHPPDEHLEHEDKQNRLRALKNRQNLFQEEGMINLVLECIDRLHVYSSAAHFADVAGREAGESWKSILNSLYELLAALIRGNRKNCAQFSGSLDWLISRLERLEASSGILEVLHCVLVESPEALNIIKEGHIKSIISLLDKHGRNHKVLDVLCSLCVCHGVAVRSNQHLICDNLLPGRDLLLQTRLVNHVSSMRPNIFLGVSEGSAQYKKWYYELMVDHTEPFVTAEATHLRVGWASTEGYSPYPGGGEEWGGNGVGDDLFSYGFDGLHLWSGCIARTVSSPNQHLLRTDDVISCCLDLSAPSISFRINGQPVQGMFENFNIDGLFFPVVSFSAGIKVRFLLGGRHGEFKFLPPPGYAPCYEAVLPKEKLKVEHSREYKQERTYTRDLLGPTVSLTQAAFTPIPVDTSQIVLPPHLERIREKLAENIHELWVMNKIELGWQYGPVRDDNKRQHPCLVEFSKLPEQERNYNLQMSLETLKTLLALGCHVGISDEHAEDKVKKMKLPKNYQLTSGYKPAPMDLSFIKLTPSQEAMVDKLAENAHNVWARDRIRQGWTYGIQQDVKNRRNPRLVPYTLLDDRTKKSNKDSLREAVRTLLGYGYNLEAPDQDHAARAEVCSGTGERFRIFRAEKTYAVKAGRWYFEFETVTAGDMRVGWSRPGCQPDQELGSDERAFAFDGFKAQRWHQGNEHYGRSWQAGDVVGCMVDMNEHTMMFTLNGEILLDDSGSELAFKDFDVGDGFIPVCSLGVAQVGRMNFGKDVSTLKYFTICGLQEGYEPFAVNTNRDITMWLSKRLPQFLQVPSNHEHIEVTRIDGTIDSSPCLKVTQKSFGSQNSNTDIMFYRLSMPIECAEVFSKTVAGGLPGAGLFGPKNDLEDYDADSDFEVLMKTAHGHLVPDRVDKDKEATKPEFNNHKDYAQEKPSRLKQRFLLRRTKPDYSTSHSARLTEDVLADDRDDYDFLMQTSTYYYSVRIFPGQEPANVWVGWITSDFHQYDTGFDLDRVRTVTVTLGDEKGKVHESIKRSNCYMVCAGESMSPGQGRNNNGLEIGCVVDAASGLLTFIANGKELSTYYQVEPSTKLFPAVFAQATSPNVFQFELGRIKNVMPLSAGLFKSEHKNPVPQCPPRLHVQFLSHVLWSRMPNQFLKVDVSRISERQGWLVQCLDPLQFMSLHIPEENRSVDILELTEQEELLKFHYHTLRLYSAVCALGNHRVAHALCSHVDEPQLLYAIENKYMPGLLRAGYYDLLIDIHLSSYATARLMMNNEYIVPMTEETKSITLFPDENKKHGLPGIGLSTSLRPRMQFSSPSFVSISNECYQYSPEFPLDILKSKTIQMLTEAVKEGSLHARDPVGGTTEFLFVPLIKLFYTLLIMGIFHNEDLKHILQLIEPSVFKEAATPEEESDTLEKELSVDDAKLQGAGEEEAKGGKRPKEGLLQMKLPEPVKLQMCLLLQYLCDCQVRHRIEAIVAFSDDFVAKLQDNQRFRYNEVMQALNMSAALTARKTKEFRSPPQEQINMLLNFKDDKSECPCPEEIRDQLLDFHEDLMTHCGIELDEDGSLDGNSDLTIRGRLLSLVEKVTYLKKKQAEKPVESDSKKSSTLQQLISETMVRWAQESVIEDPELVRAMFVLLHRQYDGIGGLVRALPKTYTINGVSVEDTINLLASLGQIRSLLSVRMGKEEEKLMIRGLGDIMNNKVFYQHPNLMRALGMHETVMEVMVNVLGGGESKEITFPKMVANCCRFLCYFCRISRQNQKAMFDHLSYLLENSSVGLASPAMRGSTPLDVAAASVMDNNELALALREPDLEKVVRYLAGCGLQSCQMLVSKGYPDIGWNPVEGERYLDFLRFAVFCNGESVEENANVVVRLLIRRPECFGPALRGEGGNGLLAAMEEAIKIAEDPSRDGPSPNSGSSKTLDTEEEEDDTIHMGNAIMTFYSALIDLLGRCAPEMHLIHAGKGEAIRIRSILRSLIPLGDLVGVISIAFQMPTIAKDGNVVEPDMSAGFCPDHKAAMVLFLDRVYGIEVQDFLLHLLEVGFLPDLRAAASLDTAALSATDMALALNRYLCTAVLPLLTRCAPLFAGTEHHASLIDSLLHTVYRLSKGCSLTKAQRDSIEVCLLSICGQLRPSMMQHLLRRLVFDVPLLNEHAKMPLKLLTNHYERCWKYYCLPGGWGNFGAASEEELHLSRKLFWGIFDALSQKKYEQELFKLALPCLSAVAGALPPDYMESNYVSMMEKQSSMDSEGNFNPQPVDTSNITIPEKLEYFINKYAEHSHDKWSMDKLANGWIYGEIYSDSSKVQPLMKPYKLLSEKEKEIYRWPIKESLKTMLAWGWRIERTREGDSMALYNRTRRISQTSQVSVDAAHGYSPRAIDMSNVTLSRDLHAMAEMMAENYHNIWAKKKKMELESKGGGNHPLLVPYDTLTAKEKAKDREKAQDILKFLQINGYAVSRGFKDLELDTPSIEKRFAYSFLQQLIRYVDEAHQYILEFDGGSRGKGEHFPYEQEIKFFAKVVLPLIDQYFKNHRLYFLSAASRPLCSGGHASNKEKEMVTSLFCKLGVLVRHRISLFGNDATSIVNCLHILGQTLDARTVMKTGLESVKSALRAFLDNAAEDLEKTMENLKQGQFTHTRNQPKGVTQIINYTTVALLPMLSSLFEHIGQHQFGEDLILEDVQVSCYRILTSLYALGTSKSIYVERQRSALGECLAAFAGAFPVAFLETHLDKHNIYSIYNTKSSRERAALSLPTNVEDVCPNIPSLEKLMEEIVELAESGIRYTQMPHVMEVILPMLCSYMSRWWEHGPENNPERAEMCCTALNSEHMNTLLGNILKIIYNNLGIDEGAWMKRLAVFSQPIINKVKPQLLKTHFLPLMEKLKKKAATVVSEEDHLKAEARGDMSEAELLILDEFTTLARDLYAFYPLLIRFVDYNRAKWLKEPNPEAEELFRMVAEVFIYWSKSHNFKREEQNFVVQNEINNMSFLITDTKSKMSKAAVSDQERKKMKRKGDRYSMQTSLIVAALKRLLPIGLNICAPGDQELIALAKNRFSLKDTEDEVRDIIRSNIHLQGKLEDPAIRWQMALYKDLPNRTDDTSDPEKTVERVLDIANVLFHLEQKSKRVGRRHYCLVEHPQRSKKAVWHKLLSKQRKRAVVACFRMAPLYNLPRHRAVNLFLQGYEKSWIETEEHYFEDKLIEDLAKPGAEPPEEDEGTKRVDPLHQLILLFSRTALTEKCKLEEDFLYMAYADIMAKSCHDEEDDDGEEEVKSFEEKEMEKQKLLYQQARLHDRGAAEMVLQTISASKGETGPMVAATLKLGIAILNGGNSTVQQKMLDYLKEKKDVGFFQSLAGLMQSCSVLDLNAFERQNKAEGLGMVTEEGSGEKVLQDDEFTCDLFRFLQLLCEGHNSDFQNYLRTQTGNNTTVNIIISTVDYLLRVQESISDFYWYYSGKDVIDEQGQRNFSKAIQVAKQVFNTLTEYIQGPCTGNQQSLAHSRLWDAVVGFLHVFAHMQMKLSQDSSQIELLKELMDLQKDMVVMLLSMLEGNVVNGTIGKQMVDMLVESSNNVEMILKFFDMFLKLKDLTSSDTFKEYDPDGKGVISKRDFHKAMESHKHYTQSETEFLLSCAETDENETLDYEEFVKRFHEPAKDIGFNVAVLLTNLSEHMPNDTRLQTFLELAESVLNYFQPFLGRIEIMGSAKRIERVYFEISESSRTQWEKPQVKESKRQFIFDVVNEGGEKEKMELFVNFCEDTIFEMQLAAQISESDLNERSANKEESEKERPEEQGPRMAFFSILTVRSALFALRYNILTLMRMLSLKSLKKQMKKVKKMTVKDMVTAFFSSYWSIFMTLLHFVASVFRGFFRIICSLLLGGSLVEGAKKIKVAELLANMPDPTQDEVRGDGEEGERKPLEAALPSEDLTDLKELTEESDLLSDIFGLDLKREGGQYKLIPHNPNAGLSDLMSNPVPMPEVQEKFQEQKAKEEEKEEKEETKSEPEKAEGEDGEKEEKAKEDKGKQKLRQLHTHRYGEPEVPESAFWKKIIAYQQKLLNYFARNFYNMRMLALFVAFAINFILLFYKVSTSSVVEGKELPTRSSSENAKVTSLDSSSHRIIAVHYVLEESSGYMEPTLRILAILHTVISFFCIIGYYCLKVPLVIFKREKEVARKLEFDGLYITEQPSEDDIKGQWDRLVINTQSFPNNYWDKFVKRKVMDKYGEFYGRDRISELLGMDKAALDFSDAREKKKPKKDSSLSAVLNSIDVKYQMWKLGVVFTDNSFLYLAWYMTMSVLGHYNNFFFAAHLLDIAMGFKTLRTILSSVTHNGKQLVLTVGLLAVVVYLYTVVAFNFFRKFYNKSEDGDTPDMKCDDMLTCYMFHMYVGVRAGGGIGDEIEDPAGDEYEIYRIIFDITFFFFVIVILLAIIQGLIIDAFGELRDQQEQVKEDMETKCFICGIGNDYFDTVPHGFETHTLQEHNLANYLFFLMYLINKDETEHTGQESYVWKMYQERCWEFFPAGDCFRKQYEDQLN
Sequence of RyR2 (Homo sapiens, UniProt Q92736) (P68106 whole entry partner): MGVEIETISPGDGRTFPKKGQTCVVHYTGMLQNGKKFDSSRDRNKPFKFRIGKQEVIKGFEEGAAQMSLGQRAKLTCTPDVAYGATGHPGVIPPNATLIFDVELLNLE

caffeine-induced Ca2+ release (RyR2 [1]): small Ca^2+ release
Compound: CC(C)NCC(O)c1ccc(O)c(O)c1 (centres unmarked) [isoproterenol]

Compound: COc1ccc2c(c1)CN(C(=O)C(=O)O)CCS2 [ARM036]
abnormal behaviors in open field test (time center versus periphery) and EPM test (time open-arm versus closed-arm) [2]: no effect | latency to find and reach the hidden platform [3]: 29 ± 3 s | crossing of the blood-brain barrier (BBB) [4]: does not cross the blood-brain barrier | NOX2 binding to hippocampal RyR2 (TGF-β pathway): no effect | TGF-β levels (TGF-β pathway): no effect | phosphorylation of SMAD3 (TGF-β pathway): no effect | LTP (hippocampal synaptic plasticity) (MI mice [5]): no effect | hippocampal FDG metabolism (MI mice [6]): 80±8 | PKA activity (adrenergic pathway): no effect | brain norepinephrine (adrenergic pathway): no effect | discrimination index [7]: 15%±3%

Compound: COc1ccc2c(c1)CN(C)CCS2 [S107]
target crossings ([3]; 60-s probe trial day 5, MI 2.4±0.3, SHAM 4.6±0.3): 4.2±0.3 | time spent in the target quadrant ([3]; 60-s probe trial day 5, MI 17±1 s, SHAM 25±2 s): 26 ± 2 s | latency to find and reach the hidden platform [3]: 20 ± 2 s | crossing of the blood-brain barrier (BBB) [4]: BBB-permeant | hippocampal FDG metabolism (MI mice [6]): 114±13 | PKA activity (adrenergic pathway): no effect | brain norepinephrine (adrenergic pathway): no effect

Compound: COc1ccc2c(c1)CN(Cc1ccc(C(=O)O)cc1)CCS2 [Compound 1]
effect on primed state of leaky channels (RyR2 [8]): reverse the primed state of leaky channels toward a fully closed state
